Reference: ChEMBL document CHEMBL3217756, “Biological and computational evaluation of an oxadiazole derivative (MD77) as a new lead for direct STAT3 inhibitors” (Medchemcomm, 2012)

Tests used:
A498 = test: Cytotoxicity against human A498 cells after 48 hrs by sulforhodamine B assay; format: functional; conditions: A498, 48 h
[1] = Cytotoxicity against human NCI-ADR-RES cells after 48 hrs by sulforhodamine B assay; format: functional
U-251 = test: Cytotoxicity against human U251 cells after 48 hrs by sulforhodamine B assay; format: functional; conditions: U-251, 48 h
KM12 = test: Cytotoxicity against human KM12 cells after 48 hrs by sulforhodamine B assay; format: functional; conditions: KM12, 48 h
PC-3 = test: Cytotoxicity against human PC3 cells after 48 hrs by sulforhodamine B assay; format: functional; conditions: PC-3, 48 h
NCI-H460 = test: Cytotoxicity against human NCI-H460 cells after 48 hrs by sulforhodamine B assay; format: functional; conditions: NCI-H460, 48 h
IGROV-1 = test: Cytotoxicity against human IGROV1 cells after 48 hrs by sulforhodamine B assay; format: functional; conditions: IGROV-1, 48 h
NCI-H226 = test: Cytotoxicity against human NCI-H226 cells after 48 hrs by sulforhodamine B assay; format: functional; conditions: NCI-H226, 48 h
MDA-MB-435 = test: Cytotoxicity against human MDA-MB-435 cells after 48 hrs by sulforhodamine B assay; format: functional; conditions: MDA-MB-435, 48 h
MDA-MB-468 = test: Cytotoxicity against human MDA-MB-468 cells after 48 hrs by sulforhodamine B assay; format: functional; conditions: MDA-MB-468, 48 h
[2] = target: T1, Signal transducer and activator of transcription 3 (Homo sapiens, UniProt P40763); test: Inhibition of SH2 domain of STAT3 (unknown origin) using (FITC)-GpYLPQTV as substrate preincubated for 15 mins before substrate addition measured after 90 mins by alphascreen based assay
[3] = Cytotoxicity against human OVCAR5 cells after 48 hrs by sulforhodamine B assay; format: functional; conditions: OVCAR-5, 48 h
LOX IMVI = test: Cytotoxicity against human LOXIMVI cells after 48 hrs by sulforhodamine B assay; format: functional
[4] = target: T1, Signal transducer and activator of transcription 3; test: Inhibition of STAT3 in human HCT116 cells at 5 uM after 24 hrs by dual-light luciferase reporter gene assay; format: cell-based; conditions: HCT-116
HL-60(TB) = test: Cytotoxicity against human HL-60(TB) cells after 48 hrs by sulforhodamine B assay; format: functional; conditions: HL-60, 48 h
MCF7 = test: Cytotoxicity against human MCF7 cells after 48 hrs by sulforhodamine B assay; format: functional; conditions: MCF7, 48 h
[5] = Cytotoxicity against human Hs 578T cells after 48 hrs by sulforhodamine B assay; format: functional
HOP-92 = test: Cytotoxicity against human HOP92 cells after 48 hrs by sulforhodamine B assay; format: functional; conditions: HOP-92, 48 h
SN12C = test: Cytotoxicity against human SN12C cells after 48 hrs by sulforhodamine B assay; format: functional
RPMI-8226 = test: Cytotoxicity against human RPMI8226 cells after 48 hrs by sulforhodamine B assay; format: functional; conditions: RPMI-8226, 48 h
[6] = Cytotoxicity against human UO31 cells after 48 hrs by sulforhodamine B assay; format: functional; conditions: UO-31, 48 h
M14 = test: Cytotoxicity against human M14 cells after 48 hrs by sulforhodamine B assay; format: functional; conditions: M14, 48 h
[7] = read-out: LC50 (the source's name)
[8] = read-out: pLC50 (the source's name) (converted)

T1 sequence (P40763 whole entry, the tested form may be a part): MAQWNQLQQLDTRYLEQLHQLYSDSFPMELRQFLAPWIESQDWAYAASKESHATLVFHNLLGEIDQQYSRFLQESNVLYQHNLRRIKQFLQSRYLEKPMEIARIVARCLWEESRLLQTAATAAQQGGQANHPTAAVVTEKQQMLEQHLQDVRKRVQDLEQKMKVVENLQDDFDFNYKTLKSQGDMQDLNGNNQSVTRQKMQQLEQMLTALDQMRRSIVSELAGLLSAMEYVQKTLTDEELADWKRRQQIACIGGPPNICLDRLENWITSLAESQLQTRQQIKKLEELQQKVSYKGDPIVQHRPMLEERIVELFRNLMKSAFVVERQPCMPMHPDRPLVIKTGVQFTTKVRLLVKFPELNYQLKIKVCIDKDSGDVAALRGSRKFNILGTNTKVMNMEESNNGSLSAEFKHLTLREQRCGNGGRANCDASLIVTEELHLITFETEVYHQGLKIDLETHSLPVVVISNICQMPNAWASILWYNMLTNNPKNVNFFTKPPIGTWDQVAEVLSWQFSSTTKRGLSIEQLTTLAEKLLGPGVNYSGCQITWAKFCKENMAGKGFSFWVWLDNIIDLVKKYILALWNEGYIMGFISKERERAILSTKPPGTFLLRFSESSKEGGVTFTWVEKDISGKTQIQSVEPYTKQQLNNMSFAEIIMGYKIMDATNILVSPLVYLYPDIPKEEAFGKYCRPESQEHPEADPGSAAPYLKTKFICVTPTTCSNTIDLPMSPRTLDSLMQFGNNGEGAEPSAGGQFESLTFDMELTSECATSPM

In the case of `O=C(Nc1nonc1-c1ccc(Cl)cc1)c1ccc(C(F)(F)F)cc1`, the GI50 (A498; read-out: GI50) is reported as 1.73 µM, the LC50 (A498; read-out: LC50) is reported as > 100 µM and the TGI (A498; read-out: TGI) is reported as 5.46 µM. For the same molecule, the GI50 (A498; read-out: pGI50 (converted)) was 1.74 µM, the LC50 (A498; read-out: pLC50 (converted)) was > 100 µM and the TGI (A498; read-out: pTGI (converted)) was 5.5 µM. The GI50 ([1]; read-out: GI50) was 2.66 µM, the CC50 [1, 7] was > 100 µM and the GI50 ([1]; read-out: pGI50 (converted)) was 2.63 µM. For the same molecule, the CC50 [1, 8] was > 100 µM, the GI50 (U-251; read-out: GI50) was 2.19 µM and the LC50 (U-251; read-out: LC50) was > 100 µM. For the same molecule, the TGI (U-251; read-out: TGI) was > 100 µM, the GI50 (U-251; read-out: pGI50 (converted)) was 2.19 µM and the LC50 (U-251; read-out: pLC50 (converted)) was > 100 µM. For the same molecule, the TGI (U-251; read-out: pTGI) was > 100 µM, the GI50 (KM12; read-out: GI50) was 3.06 µM and the CC50 (KM12; [7]) was > 100 µM. For the same molecule, the TGI (KM12; read-out: TGI) was > 100 µM, the GI50 (KM12; read-out: pGI50 (converted)) was 3.09 µM and the CC50 (KM12; [8]) was > 100 µM. For the same molecule, the TGI (KM12; read-out: pTGI) was > 100 µM, the GI50 (PC-3; read-out: GI50) was 1.38 µM and the CC50 (PC-3; [7]) was > 100 µM. For the same molecule, the TGI (PC-3; read-out: TGI) was 8.91 µM, the GI50 (PC-3; read-out: pGI50 (converted)) was 1.38 µM and the CC50 (PC-3; [8]) was > 100 µM. For the same molecule, the TGI (PC-3; read-out: pTGI (converted)) was 8.91 µM, the GI50 (NCI-H460; read-out: GI50) was 0.629 µM and the CC50 (NCI-H460; [7]) was > 100 µM. The GI50 (NCI-H460; read-out: pGI50 (converted)) was 0.631 µM, the CC50 (NCI-H460; [8]) was > 100 µM and the GI50 (IGROV-1; read-out: GI50) was 4.72 µM. For the same molecule, the LC50 (IGROV-1; read-out: LC50) was > 100 µM, the TGI (IGROV-1; read-out: TGI) was > 100 µM and the GI50 (IGROV-1; read-out: pGI50 (converted)) was 4.68 µM. The LC50 (IGROV-1; read-out: pLC50 (converted)) was > 100 µM, the TGI (IGROV-1; read-out: pTGI) was > 100 µM and the GI50 (NCI-H226; read-out: GI50) was 2.48 µM. The CC50 (NCI-H226; [7]) was > 100 µM, the TGI (NCI-H226; read-out: TGI) was 7.85 µM and the GI50 (NCI-H226; read-out: pGI50 (converted)) was 2.45 µM. For the same molecule, the CC50 (NCI-H226; [8]) was > 100 µM, the TGI (NCI-H226; read-out: pTGI (converted)) was 7.76 µM and the GI50 (MDA-MB-435; read-out: GI50) was 2.15 µM. For the same molecule, the LC50 (MDA-MB-435; read-out: LC50) was > 100 µM, the TGI (MDA-MB-435; read-out: TGI) was > 100 µM and the GI50 (MDA-MB-435; read-out: pGI50 (converted)) was 2.14 µM. For the same molecule, the LC50 (MDA-MB-435; read-out: pLC50 (converted)) was > 100 µM, the TGI (MDA-MB-435; read-out: pTGI) was > 100 µM and the GI50 (MDA-MB-468; read-out: GI50) was 3.36 µM. For the same molecule, the LC50 (MDA-MB-468; read-out: LC50) was > 100 µM, the TGI (MDA-MB-468; read-out: TGI) was 27 µM and the GI50 (MDA-MB-468; read-out: pGI50 (converted)) was 3.39 µM. The LC50 (MDA-MB-468; read-out: pLC50 (converted)) was > 100 µM, the TGI (MDA-MB-468; read-out: pTGI (converted)) was 26.9 µM and the IC50 [2] was 17.7 µM. For the same molecule, the inhibition [2] was “Dose-dependent effect”, the GI50 ([3]; read-out: GI50) was 3.98 µM and the LC50 ([3]; read-out: LC50) was > 100 µM. The TGI ([3]; read-out: TGI) was 96.3 µM, the GI50 ([3]; read-out: pGI50 (converted)) was 3.98 µM and the LC50 ([3]; read-out: pLC50 (converted)) was > 100 µM. The TGI ([3]; read-out: pTGI (converted)) was 95.5 µM, the GI50 (LOX IMVI; read-out: GI50) was 0.872 µM and the LC50 (LOX IMVI; read-out: LC50) was > 100 µM. For the same molecule, the TGI (LOX IMVI; read-out: TGI) was 57 µM, the GI50 (LOX IMVI; read-out: pGI50 (converted)) was 0.871 µM and the LC50 (LOX IMVI; read-out: pLC50 (converted)) was > 100 µM. The TGI (LOX IMVI; read-out: pTGI (converted)) was 57.5 µM, the inhibition [4] was 20% and the GI50 (HL-60(TB); read-out: GI50) was 0.546 µM. The CC50 (HL-60(TB); [7]) was > 100 µM, the TGI (HL-60(TB); read-out: TGI) was 2.85 µM and the GI50 (HL-60(TB); read-out: pGI50 (converted)) was 0.55 µM. The CC50 (HL-60(TB); [8]) was > 100 µM, the TGI (HL-60(TB); read-out: pTGI (converted)) was 2.88 µM and the GI50 (MCF7; read-out: GI50) was 2.84 µM. The CC50 (MCF7; [7]) was > 100 µM, the TGI (MCF7; read-out: TGI) was 8.15 µM and the GI50 (MCF7; read-out: pGI50 (converted)) was 2.82 µM. For the same molecule, the CC50 (MCF7; [8]) was > 100 µM, the TGI (MCF7; read-out: pTGI (converted)) was 8.13 µM and the GI50 ([5]; read-out: GI50) was 2.53 µM. The CC50 [5, 7] was > 100 µM, the TGI ([5]; read-out: TGI) was > 100 µM and the GI50 ([5]; read-out: pGI50 (converted)) was 2.51 µM. The CC50 [5, 8] was > 100 µM, the TGI ([5]; read-out: pTGI) was > 100 µM and the GI50 (HOP-92; read-out: GI50) was 0.668 µM. The CC50 (HOP-92; [7]) was > 100 µM, the TGI (HOP-92; read-out: TGI) was 3.96 µM and the GI50 (HOP-92; read-out: pGI50 (converted)) was 0.661 µM. For the same molecule, the CC50 (HOP-92; [8]) was > 100 µM, the TGI (HOP-92; read-out: pTGI (converted)) was 3.98 µM and the GI50 (SN12C; read-out: GI50) was 2.87 µM. For the same molecule, the CC50 (SN12C; [7]) was > 100 µM, the TGI (SN12C; read-out: TGI) was > 100 µM and the GI50 (SN12C; read-out: pGI50 (converted)) was 2.88 µM. For the same molecule, the CC50 (SN12C; [8]) was > 100 µM, the TGI (SN12C; read-out: pTGI) was > 100 µM and the GI50 (RPMI-8226; read-out: GI50) was 1.05 µM. For the same molecule, the CC50 (RPMI-8226; [7]) was > 100 µM, the TGI (RPMI-8226; read-out: TGI) was 5.89 µM and the GI50 (RPMI-8226; read-out: pGI50 (converted)) was 1.05 µM. The CC50 (RPMI-8226; [8]) was > 100 µM, the TGI (RPMI-8226; read-out: pTGI (converted)) was 5.89 µM and the GI50 ([6]; read-out: GI50) was 2.37 µM. The CC50 [6, 7] was > 100 µM, the TGI ([6]; read-out: TGI) was > 100 µM and the GI50 ([6]; read-out: pGI50 (converted)) was 2.34 µM. For the same molecule, the CC50 [6, 8] was > 100 µM, the TGI ([6]; read-out: pTGI) was > 100 µM and the GI50 (M14; read-out: GI50) was 2.04 µM. For the same molecule, the CC50 (M14; [7]) was > 100 µM, the TGI (M14; read-out: TGI) was > 100 µM and the GI50 (M14; read-out: pGI50 (converted)) was 2.04 µM. The CC50 (M14; [8]) was > 100 µM and the TGI (M14; read-out: pTGI) was > 100 µM.
